Source: the NIST ThermoML archive (doi:10.1021/je200721d)
Numbers after ± are expanded uncertainties.

Experiment: xn = mol fraction of the nth substance listed
Details: Liquid, Vibrating tube method

CCCCCCCC [octane] + CCCCCC
Details	mass density [kg/m3]
342.99 K, 19000 kPa, x2 = 0.1654	676.86 ± 0.42
342.99 K, 20000 kPa, x2 = 0.1654	677.79 ± 0.43
342.99 K, 21000 kPa, x2 = 0.1654	678.7 ± 0.44
342.99 K, 22000 kPa, x2 = 0.1654	679.59 ± 0.45
342.99 K, 23000 kPa, x2 = 0.1654	680.47 ± 0.46
342.99 K, 24000 kPa, x2 = 0.1654	681.32 ± 0.47
342.99 K, 25000 kPa, x2 = 0.1654	682.14 ± 0.48
343 K, 1000 kPa, x2 = 0.7995	627.89 ± 0.28
343 K, 2000 kPa, x2 = 0.7995	629.27 ± 0.29
343 K, 3000 kPa, x2 = 0.7995	630.64 ± 0.3
343 K, 4000 kPa, x2 = 0.7995	632.01 ± 0.3
343 K, 5000 kPa, x2 = 0.7995	633.35 ± 0.31
343 K, 6000 kPa, x2 = 0.7995	634.69 ± 0.32
343 K, 7000 kPa, x2 = 0.7995	636.02 ± 0.33
343 K, 8000 kPa, x2 = 0.7995	637.32 ± 0.34
343 K, 9000 kPa, x2 = 0.7995	638.61 ± 0.35
343 K, 10000 kPa, x2 = 0.7995	639.87 ± 0.36
343 K, 11000 kPa, x2 = 0.7995	641.1 ± 0.37
343 K, 12000 kPa, x2 = 0.7995	642.32 ± 0.38
343 K, 13000 kPa, x2 = 0.7995	643.52 ± 0.39
343 K, 14000 kPa, x2 = 0.7995	644.7 ± 0.4
343 K, 15000 kPa, x2 = 0.7995	645.87 ± 0.41
343 K, 16000 kPa, x2 = 0.7995	647.01 ± 0.42
343 K, 17000 kPa, x2 = 0.7995	648.12 ± 0.43
343 K, 18000 kPa, x2 = 0.7995	649.21 ± 0.44
343 K, 19000 kPa, x2 = 0.7995	650.28 ± 0.45
343 K, 20000 kPa, x2 = 0.7995	651.33 ± 0.46
343 K, 21000 kPa, x2 = 0.7995	652.33 ± 0.47
343 K, 22000 kPa, x2 = 0.7995	653.33 ± 0.48
343 K, 23000 kPa, x2 = 0.7995	654.3 ± 0.49
343 K, 24000 kPa, x2 = 0.7995	655.24 ± 0.5
343 K, 25000 kPa, x2 = 0.7995	656.16 ± 0.52
352.79 K, 1000 kPa, x2 = 0.5749	631.4 ± 0.28
352.79 K, 2000 kPa, x2 = 0.5749	632.83 ± 0.28
352.79 K, 3000 kPa, x2 = 0.5749	634.2 ± 0.29
352.79 K, 4000 kPa, x2 = 0.5749	635.57 ± 0.3
352.79 K, 5000 kPa, x2 = 0.5749	636.95 ± 0.31
352.79 K, 6000 kPa, x2 = 0.5749	638.3 ± 0.32
352.79 K, 7000 kPa, x2 = 0.5749	639.63 ± 0.33
352.79 K, 8000 kPa, x2 = 0.5749	640.97 ± 0.34
352.79 K, 9000 kPa, x2 = 0.5749	642.26 ± 0.35
352.79 K, 10000 kPa, x2 = 0.5749	643.53 ± 0.36
352.79 K, 11000 kPa, x2 = 0.5749	644.82 ± 0.37
352.79 K, 12000 kPa, x2 = 0.5749	646.04 ± 0.38
352.79 K, 13000 kPa, x2 = 0.5749	647.27 ± 0.39
352.79 K, 14000 kPa, x2 = 0.5749	648.46 ± 0.4
352.79 K, 15000 kPa, x2 = 0.5749	649.66 ± 0.41
352.79 K, 16000 kPa, x2 = 0.5749	650.79 ± 0.42
352.79 K, 17000 kPa, x2 = 0.5749	651.95 ± 0.43
352.79 K, 18000 kPa, x2 = 0.5749	653.02 ± 0.44
352.79 K, 19000 kPa, x2 = 0.5749	654.11 ± 0.45
352.79 K, 20000 kPa, x2 = 0.5749	655.18 ± 0.45
352.79 K, 21000 kPa, x2 = 0.5749	656.24 ± 0.46
352.79 K, 22000 kPa, x2 = 0.5749	657.22 ± 0.47
352.79 K, 23000 kPa, x2 = 0.5749	658.23 ± 0.48
352.79 K, 24000 kPa, x2 = 0.5749	659.22 ± 0.5
352.79 K, 25000 kPa, x2 = 0.5749	660.15 ± 0.51
352.85 K, 1000 kPa, x2 = 0.2199	646.75 ± 0.27
352.85 K, 2000 kPa, x2 = 0.2199	648.04 ± 0.28
352.85 K, 3000 kPa, x2 = 0.2199	649.32 ± 0.28
352.85 K, 4000 kPa, x2 = 0.2199	650.6 ± 0.29
352.85 K, 5000 kPa, x2 = 0.2199	651.87 ± 0.3
352.85 K, 6000 kPa, x2 = 0.2199	653.11 ± 0.31
352.85 K, 7000 kPa, x2 = 0.2199	654.35 ± 0.32
352.85 K, 8000 kPa, x2 = 0.2199	655.57 ± 0.33
352.85 K, 9000 kPa, x2 = 0.2199	656.79 ± 0.34
352.85 K, 10000 kPa, x2 = 0.2199	657.97 ± 0.35
352.85 K, 11000 kPa, x2 = 0.2199	659.16 ± 0.35
352.85 K, 12000 kPa, x2 = 0.2199	660.32 ± 0.36
352.85 K, 13000 kPa, x2 = 0.2199	661.45 ± 0.37
352.85 K, 14000 kPa, x2 = 0.2199	662.57 ± 0.38
352.85 K, 15000 kPa, x2 = 0.2199	663.67 ± 0.39
352.85 K, 16000 kPa, x2 = 0.2199	664.74 ± 0.4
352.85 K, 17000 kPa, x2 = 0.2199	665.8 ± 0.41
352.85 K, 18000 kPa, x2 = 0.2199	666.83 ± 0.42
352.85 K, 19000 kPa, x2 = 0.2199	667.85 ± 0.43
352.85 K, 20000 kPa, x2 = 0.2199	668.84 ± 0.44
352.85 K, 21000 kPa, x2 = 0.2199	669.8 ± 0.45
352.85 K, 22000 kPa, x2 = 0.2199	670.75 ± 0.46
352.85 K, 23000 kPa, x2 = 0.2199	671.68 ± 0.47
352.85 K, 24000 kPa, x2 = 0.2199	672.59 ± 0.48
352.85 K, 25000 kPa, x2 = 0.2199	673.48 ± 0.49
352.91 K, 1000 kPa, x2 = 0.1654	648.87 ± 0.27
352.91 K, 1000 kPa, x2 = 0.9308	609.77 ± 0.28
352.91 K, 2000 kPa, x2 = 0.1654	650.15 ± 0.28
352.91 K, 2000 kPa, x2 = 0.9308	611.36 ± 0.29
352.91 K, 3000 kPa, x2 = 0.1654	651.43 ± 0.28
352.91 K, 3000 kPa, x2 = 0.9308	612.95 ± 0.3
352.91 K, 4000 kPa, x2 = 0.1654	652.68 ± 0.29
352.91 K, 4000 kPa, x2 = 0.9308	614.51 ± 0.31
352.91 K, 5000 kPa, x2 = 0.1654	653.95 ± 0.3
352.91 K, 5000 kPa, x2 = 0.9308	616.06 ± 0.32
352.91 K, 6000 kPa, x2 = 0.1654	655.19 ± 0.31
352.91 K, 6000 kPa, x2 = 0.9308	617.57 ± 0.33
